The text below walks through data of article PMC9629815, “MK256 is a novel CDK8 inhibitor with potent antitumor activity in AML through downregulation of the STAT pathway” (Oncotarget, 2022).

The viability is a read-out of living cells in per cent, often relative to untreated cells.

For one data set, the system named is CCL2 mRNA in KG-1 cells. Description: Real-time RT-PCR of CCL2 mRNA. Format: cell-based. As to the method: (§1) Total RNA from the various cell lines was isolated using the RNeasy extraction method (Qiagen, Valencia, CA, USA). First-strand cDNA was synthesized from total RNA by iScript cDNA synthesis (Bio-Rad, Hercules, CA, USA) according to the manufacturer’s instructions. Taqman RT–PCR analysis was performed on cDNA in a 384-well plate, using a Prism 7900HT Real-Time PCR System (Applied Biosystems, Foster City, CA, USA). Primers and Taqman probes were purchased from Applied Biosystems. The expression of target genes MCL1 (Hs03043899_m1, Thermo fisher) and CCL2 (Hs00234140_m1, Thermo fisher) in each sample was assayed in triplicate and normalized to human GUSB for mRNA expression analysis. An unpaired t test was used to calculate statistical significance.
For orientation: Real-time PCR tracks product formation cycle by cycle.

Data set [1] has as its system CCL2 mRNA in MOLM-14 cells. In words: Real-time RT-PCR of CCL2 mRNA. In kind it is cell-based. As to the method:
as §1

The nature of data set [2]: Hepatocyte stability assay. Format: in vitro ADME, Human. As to the method:
(§2) Human LiverPoolTM 20-donor, dog and mouse cryopreserved hepatocytes were obtained from BioreclamationIVT. Cryopreserved hepatocytes were removed from the liquid nitrogen tank and thawed in a 37°C water bath. As soon as the cells pulled away from the vial wall, they were decanted into 48 ml of warm HT medium. Cells were centrifuged for four minutes at 420 rpm (50 g). After the supernatant was removed, the pellet was re-suspended in warm DMEM medium. Cell density was counted by a hemacytometer. The assay was carried out in 96-well microtiter plates. MK256 was incubated for 0, 60, 120, and 180 minutes at 37°C with hepatocytes. Reaction mixtures (50 μL) contained a final concentration of 1 μM MK256, 0.5 million cells/mL hepatocytes in the DMEM medium. At each time point (for example, 0, 1, 2, and 3 hrs), 200 μL of quench solution (100% acetonitrile with 0.1% formic acid) with internal standard were transferred to each well. […] All samples were analyzed on LC/MS/MS using an AB Sciex API 4000 instrument, coupled to a Shimadzu LC-20AD LC Pump system. […] The extent of metabolism was calculated as the disappearance of the test compound, compared to the 0-min control reaction incubations. Initial rates were calculated for the compound concentration and used to determine t1/2 values and subsequently, the intrinsic clearance, CLint = (0.693)(1/t1/2 (min))(mL incubation/million cells).

Data set [3] can be described thus: Hepatocyte stability assay. Format: in vitro ADME, Dog. As to the method: as §2
The next data set deals with CYP3A4-TS (Homo sapiens, UniProt P08684). Description: Cytochrome P450 inhibition assay. In kind it is in vitro ADME. Conditions: 50 uM.
Sequence of CYP3A4-TS (P08684 whole entry): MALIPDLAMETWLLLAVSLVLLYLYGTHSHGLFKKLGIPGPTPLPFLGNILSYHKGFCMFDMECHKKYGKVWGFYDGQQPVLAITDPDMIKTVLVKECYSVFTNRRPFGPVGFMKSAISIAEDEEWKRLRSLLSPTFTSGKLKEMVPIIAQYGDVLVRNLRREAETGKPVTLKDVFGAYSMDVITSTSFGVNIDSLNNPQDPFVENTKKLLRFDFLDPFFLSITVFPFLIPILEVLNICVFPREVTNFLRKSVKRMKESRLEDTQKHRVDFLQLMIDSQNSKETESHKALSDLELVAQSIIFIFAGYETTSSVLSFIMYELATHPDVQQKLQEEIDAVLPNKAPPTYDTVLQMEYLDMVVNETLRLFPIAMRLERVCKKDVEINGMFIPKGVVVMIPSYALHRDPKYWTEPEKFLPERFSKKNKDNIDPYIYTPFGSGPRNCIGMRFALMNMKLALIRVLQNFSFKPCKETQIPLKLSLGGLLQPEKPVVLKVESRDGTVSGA
Data set [4] concerns p-STAT1 (S727), p-STAT3(S727), p-STAT5(S726) in MOLM-14 xenograft tumors. In words: Pharmacodynamics study in MOLM-14 xenograft model (western blot of tumors). Conditions: 10, 50 and 100 mg/kg oral, 6 hrs; with higher doses. Format: in vivo, mice. As to the method: For the in vivo western blot study, to assess gene expression in vivo, tumors were induced in female NOD SCID mice by s.c. inoculation of 5 × 10^6 AML cells suspended in matrigel. Mice bearing tumors of at least 100 mm^3 were treated with MK256. Mice were sacrificed after 6 hrs and tumors were harvested. The tumors were homogenized and lysed in T-per Mammalian Protein Extraction Reagent (78510, Thermo Fisher Scientific) containing protease and phosphatase inhibitors (88669, Thermo Fisher Scientific). Total protein concentration was measured using the Pierce BCA protein Assay Kit (23227, Thermo Fisher Scientific). Proteins were separated on SDS-PAGE and transferred to Nitrocellulose membrane. Immunoblotting was performed using specific antibodies. The following specific antibodies were used: Cell signaling technology: pSTAT1(S727) #8826, pSTAT1(Y701) #9167, STAT1 #14994, pSTAT3 (S727) #9134, pSTAT3(Y705) #9145, STAT3 #9139, pSTAT5(Y694) #4322, STAT5 #25656, b-ACTIN #3700, GAPDH #5174, BCL2 #4223, MCL-1 #94296, Cleaved PARP #9541, Cleaved Caspase3 #9661, IL6ST #12859, SmyD3 #3732, PD-L1 #13684. Invitrogen: IL6R PA5109855. Abcam: pSTAT5(S726) ab128896.

A further data set relates to MOLM-14 cells. In words: Cell viability dose-response matrix of MK256 and venetoclax. Format: cell-based. Conditions: Homo sapiens, Venetoclax 0 nM, 72 hrs, read-out: percentage of cell viability. From the text: Our earlier experiments showing the clearly increasing expression of BCL-2 in the MOLM-14 cell line led us to ask if there was any combinational effect between MK256 and a BCL-2 inhibitor in MOLM-14 cells. To address this question, we chose venetoclax (ABT-199), an FDA-approved BCL-2 inhibitor for AML and CLL, for the combination study. We treated MOLM-14 cells with MK256 and venetoclax at a series of concentration combinations, measured cell viability, and reported the data in a dose-response matrix (Figure 8). […] We also investigated the apoptotic effect of the combination treatment in the MOLM-14 cell line (Figure 10B).
Figure 10 (A) Dose-response matrix of percentage of cell viability of 10,000 MOLM-14 cells after 72 hrs treatment of MK256 and venetoclax at various concentration combinations. (B) Annexin V staining of 10,000 MOLM-14 cells after 72 hrs treatment of MK256 and venetoclax(ABT199) at various concentration combinations. Status of cells are labeled in the graph at the upper left corner. (C) Tumor growth of MOLM-14 xenograft model. Groups of control; ABT199 (25 mg/kg); ABT199 (25 mg/kg) + MK256 (10 mg/kg); ABT199 25 mg/kg + MK256 (50 mg/kg) were shown in straight line, dotted line, 3 dashed line and 2 dashed line, respectively. ^*** P < 0.001. (D) Body weight percentage of MOLM-14 tumor model. […]

Like-named read-outs stand apart in the source and are kept apart here.

For the compound `Nc1nccc2c(Br)cc3cc(C(=O)O)ccc3c12` [MK256], the “expression of CCL2 downregulated to” value in the data set on CCL2 mRNA in KG-1 cells (300 nM) was “approximately 50%”; in the data set with CCL2 mRNA in KG-1 cells (1 uM), roughly 40%. Moreover, the “mRNA level of CCL2” value in data set [1] (1 uM) is “abolished”. Also, the mrna remaining at 0.3 µM in data set [1] (Homo sapiens, MOLM-14, 300 nM, read-out: mRNA level of CCL2 (remaining)) was roughly 5%. For the same compound, the entries for the “Clint (μL·min^−1·mg protein^−1)” value in data set [2] (Human hepatocytes) and in data set [3] (Dog hepatocytes) were 16 μL·min^−1·mg protein^−1 and 7 μL·min^−1·mg protein^−1, respectively. The half-life at 1 µM in data set [2] (human, cryopreserved human hepatocytes (LiverPool 20-donor), read-out: T½) came to 1.48 h; in data set [3] (dog, cryopreserved dog hepatocytes, read-out: T½) it was 3.57 h. Besides, the “cytochrome P450 inhibition” value at CYP3A4-TS was “no inhibition”. In addition, the “expression levels of p-STAT1 (S727), p-STAT3(S727), p-STAT5(S726) in tumors” value in data set [4] was “further downregulated”. Further, the viability at 0.0015 µM with MOLM-14 cells (MK256 1.5 nM) amounted to 110%. Besides, the viability at 0.0046 µM with MOLM-14 cells (MK256 4.6 nM) worked out at 101%. Moreover, the viability at 0.0137 µM in the data set with MOLM-14 cells (MK256 13.7 nM) amounted to 103%. Further, in the data set with MOLM-14 cells (MK256 41.2 nM), the viability at 0.0412 µM was found to be 103%. The viability at 0.1235 µM in the data set with MOLM-14 cells (MK256 123.5 nM) turned out to be 100%. Also, in the data set on MOLM-14 cells (MK256 370.4 nM), the viability at 0.3704 µM amounted to 90%. In the data set with MOLM-14 cells (MK256 1100 nM), the viability at 1.1 µM turned out to be 32%. For the same compound, the viability at 10 µM with MOLM-14 cells (MK256 10000 nM) stood at 0%. Moreover, in the data set with MOLM-14 cells (MK256 30000 nM), the viability at 30 µM is 0%.
